Data reported in the supplement of paper PMC13380429.
± gives the standard deviation of the averaged measurements.

How the values were obtained:
Conditions in all cases: 72 h
[1] = tested on: Caco-2; assay: cell viability relative to DMSO; higher = less toxic
[2] = tested on: Calu-3; assay: as above
[3] = tested on: HepG2; assay: as above
[4] = tested on: U2OS; assay: as above
[5] = tested on: Vero E6; assay: as above
[6] = tested on: Caco-2; assay: relative viability EC50 (midpoint between 100% and the lowest measured viability); higher = less toxic
[7] = tested on: Calu-3; assay: as above
[8] = tested on: HepG2; assay: as above
[9] = tested on: U2OS; assay: as above
[10] = tested on: Vero E6; assay: as above
[11] = tested on: Caco-2; assay: drug sensitivity score (DSS) for viability; higher = more toxic; extreme values may be limits of the assay
[12] = tested on: Calu-3; assay: as above
[13] = tested on: HepG2; assay: as above
[14] = tested on: U2OS; assay: as above
[15] = tested on: Vero E6; assay: as above

SMILES	cell viability ([1]; 1 nM)	cell viability ([1]; 10 nM)	cell viability ([1]; 100 nM)	cell viability ([1]; 1000 nM)	cell viability ([1]; 10000 nM)	cell viability ([2]; 1 nM)	cell viability ([2]; 10 nM)	cell viability ([2]; 100 nM)	cell viability ([2]; 1000 nM)	cell viability ([2]; 10000 nM)	cell viability ([3]; 1 nM)	cell viability ([3]; 10 nM)	cell viability ([3]; 100 nM)	cell viability ([3]; 1000 nM)	cell viability ([3]; 10000 nM)	cell viability ([4]; 1 nM)	cell viability ([4]; 10 nM)	cell viability ([4]; 100 nM)	cell viability ([4]; 1000 nM)	cell viability ([4]; 10000 nM)	cell viability ([5]; 1 nM)	cell viability ([5]; 10 nM)	cell viability ([5]; 100 nM)	cell viability ([5]; 1000 nM)	cell viability ([5]; 10000 nM)	relative viability EC50 [6]	relative viability EC50 [7]	relative viability EC50 [8]	relative viability EC50 [9]	relative viability EC50 [10]	drug sensitivity score [11]	drug sensitivity score [12]	drug sensitivity score [13]	drug sensitivity score [14]	drug sensitivity score [15]
OC[C@H]1O[C@H](O[C@H]2O[C@H](CO)[C@@H](O)[C@H](O)[C@H]2O)[C@H](O)[C@@H](O)[C@@H]1O [cabaletta]	112%	112%	83.7%	97.7%	94.5%	96.2%	105%	97.2%	109%	96.3%	130%	110%	115%	110%	98.2%	99.1%	103%	104%	107%	106%	110%	94.3%	104%	105%	99.5%	> 10 µM	> 10 µM	> 10 µM	> 10 µM	> 10 µM	0	0	0	0	0
CCOc1nc2cccc(C(=O)O)c2n1Cc1ccc(-c2ccccc2-c2nnn[nH]2)cc1 [candesartan]	104%	97.5%	106%	90.1%	92.5%	91.1%	95.7%	100%	99.7%	105%	103%	100%	106%	98%	94.5%	94.2%	96.8%	94.4%	99.3%	102%	102%	97.6%	95.3%	92.7%	108%	> 10 µM	> 10 µM	> 10 µM	> 10 µM	> 10 µM	0	0	0	0	0
O=C1c2ccccc2C(=O)C1c1ccc(Cl)cc1 [chlorindione]	94.5%	84.3%	104%	95.2%	106%	103%	103%	99.5%	106%	99.7%	96.8%	108%	106%	111%	122%	99.5%	93.8%	105%	97.4%	95.4%	95.1%	95.2%	90.3%	93.6%	108%	> 10 µM	> 10 µM	> 10 µM	> 10 µM	> 10 µM	0	0	0	0	0
C=Cc1c(C)c2cc3nc(c(CC(=O)O)c4[n-]c(cc5nc(cc1[n-]2)C(C)=C5CC)c(C)c4C(=O)O)[C@@H](CCC(=O)O)[C@@H]3C.[Cu+2] [chlorophyllin-copper]	88.2%	84%	98.7%	95.8%	89.4%	88.2%	85.4%	104%	104%	75.4%	89.6%	104%	82.3%	105%	88.8%	94.9%	97.2%	98.7%	91.9%	88.6%	103%	97.3%	95.2%	102%	85.9%	> 10 µM	> 10 µM	> 10 µM	> 10 µM	> 10 µM	0	0.7	0	0	0.1
Oc1ccnc2cc(Cl)ccc12 [chloroxoquinoline]	98.7%	96.3%	94.7%	90.8%	89.9%	87.2%	95.4%	92.9%	105%	92.2%	104%	96.3%	94.6%	92.4%	105%	98.5%	99.7%	95.5%	103%	95.5%	102%	90.9%	101%	96.1%	99.5%	> 10 µM	> 10 µM	> 10 µM	> 10 µM	> 10 µM	0	0	0	0	0
Cc1cc(O)cc(C)c1Cl [chloroxylenol]	99.8%	101%	93.2%	92%	89.3%	104%	108%	94.7%	105%	95.5%	90.6%	92%	105%	104%	94%	102%	106%	97.3%	99.8%	95.4%	101%	101%	96.9%	99.1%	104%	> 10 µM	> 10 µM	> 10 µM	> 10 µM	> 10 µM	0.3	0	0	0	0
CN(C)CC[C@@H](c1ccc(Cl)cc1)c1ccccn1 [chlorphenamine]	102 ± 3.8%	100 ± 2.9%	102%	98.8 ± 3.8%	93.05 ± 0.35%	97.8 ± 1.2%	95.2 ± 1.8%	93.3 ± 3.8%	97.7 ± 3.3%	96.4 ± 14%	102 ± 2%	113.5 ± 0.71%	96.4 ± 2.8%	94.7 ± 2.3%	99.2 ± 10%	98 ± 3.7%	97.8 ± 0.71%	94.7 ± 1.7%	95.2 ± 2.4%	93 ± 2.6%	103 ± 6.3%	103 ± 6.7%	99.1 ± 1.3%	95.4 ± 3.7%	96.8 ± 3.2%	> 10 µM	> 10 µM	> 10 µM	> 10 µM	> 10 µM	0	0	0	0	0
NC(=O)OCC(O)COc1ccc(Cl)cc1 (stereo not given) [chlorphensin-carbamate]	100%	109%	92%	117%	93.3%	92.6%	96.3%	91.6%	85.5%	94.2%	91.7%	97%	100%	100%	100%	99.6%	99%	96.3%	98.2%	94.3%	110%	95.5%	105%	96.5%	103%	> 10 µM	> 10 µM	> 10 µM	> 10 µM	> 10 µM	0	0	0	0	0
Oc1cc(O)c2c(c1)O[C@H](c1ccc(O)c(O)c1)[C@@H](O)C2 [cianidanol]	89.8%	89.6%	92.6%	90.4%	92.6%	96.9%	101%	97.4%	107%	101%	100%	99.8%	84.6%	102%	109%	93.9%	96.2%	95.6%	98.5%	100%	98%	88.5%	103%	94.5%	113%	> 10 µM	> 10 µM	> 10 µM	> 10 µM	> 10 µM	0	0	0	0	0
CC(C(=O)O)c1ccc2c(c1)Cc1ccccc1-2 (stereo not given) [cicloprofen]	96.8%	97.9%	99.9%	102%	107%	95.4%	103%	97.6%	93.7%	90.5%	101%	93.7%	106%	95.7%	112%	96.9%	98%	94.4%	98.5%	106%	104%	101%	101%	93.8%	101%	> 10 µM	> 10 µM	> 10 µM	> 10 µM	> 10 µM	0	0	0	0	0
C=C[C@H]1CN2CC[C@H]1C[C@H]2[C@H](O)c1ccnc2ccccc12 [cinchonidine]	94.8 ± 2.2%	98.6 ± 0.42%	99.8 ± 11%	114 ± 16%	116 ± 5.9%	95.2 ± 1.6%	102 ± 2.5%	100 ± 4%	98.7 ± 5%	106 ± 5.8%	104 ± 7.8%	94.5 ± 1.2%	97.05 ± 0.35%	92 ± 0.42%	94.2 ± 2.8%	98.35 ± 0.071%	103 ± 2%	97.85 ± 0.78%	102 ± 1.2%	99.5 ± 4.2%	104 ± 4%	105 ± 5.8%	106 ± 0.21%	95.55 ± 0.64%	97.1 ± 1.7%	> 10 µM	> 10 µM	> 10 µM	> 10 µM	> 10 µM	0	0	0	0	0
CN1CC(=O)NC1=N [creatinine]	95.8%	96.6%	96.9%	102%	99.1%	97.2%	99.7%	85%	95.7%	87.5%	97.4%	97.3%	104%	90.9%	103%	100%	99.5%	97.3%	98.4%	95.5%	100%	97%	93.9%	96.1%	98.7%	> 10 µM	> 10 µM	> 10 µM	> 10 µM	> 10 µM	0	0.2	0	0	0
